From ChEMBL document CHEMBL1201862, “PubChem BioAssay data set” (2004)
The source made the active and inactive calls.

Experiments:
Aminopeptidase N = biological target: T1, Aminopeptidase N (Plasmodium falciparum FcB1/Columbia, UniProt O96935); assay: P. falciparum M1AAP inhibitors, biochemical, fluorogenic H-Leu-NHMec substrate, 1536-well (AID 1445); set-up: species or system Plasmodium falciparum 3D7, 3D7
T1 sequence (O96935 whole entry): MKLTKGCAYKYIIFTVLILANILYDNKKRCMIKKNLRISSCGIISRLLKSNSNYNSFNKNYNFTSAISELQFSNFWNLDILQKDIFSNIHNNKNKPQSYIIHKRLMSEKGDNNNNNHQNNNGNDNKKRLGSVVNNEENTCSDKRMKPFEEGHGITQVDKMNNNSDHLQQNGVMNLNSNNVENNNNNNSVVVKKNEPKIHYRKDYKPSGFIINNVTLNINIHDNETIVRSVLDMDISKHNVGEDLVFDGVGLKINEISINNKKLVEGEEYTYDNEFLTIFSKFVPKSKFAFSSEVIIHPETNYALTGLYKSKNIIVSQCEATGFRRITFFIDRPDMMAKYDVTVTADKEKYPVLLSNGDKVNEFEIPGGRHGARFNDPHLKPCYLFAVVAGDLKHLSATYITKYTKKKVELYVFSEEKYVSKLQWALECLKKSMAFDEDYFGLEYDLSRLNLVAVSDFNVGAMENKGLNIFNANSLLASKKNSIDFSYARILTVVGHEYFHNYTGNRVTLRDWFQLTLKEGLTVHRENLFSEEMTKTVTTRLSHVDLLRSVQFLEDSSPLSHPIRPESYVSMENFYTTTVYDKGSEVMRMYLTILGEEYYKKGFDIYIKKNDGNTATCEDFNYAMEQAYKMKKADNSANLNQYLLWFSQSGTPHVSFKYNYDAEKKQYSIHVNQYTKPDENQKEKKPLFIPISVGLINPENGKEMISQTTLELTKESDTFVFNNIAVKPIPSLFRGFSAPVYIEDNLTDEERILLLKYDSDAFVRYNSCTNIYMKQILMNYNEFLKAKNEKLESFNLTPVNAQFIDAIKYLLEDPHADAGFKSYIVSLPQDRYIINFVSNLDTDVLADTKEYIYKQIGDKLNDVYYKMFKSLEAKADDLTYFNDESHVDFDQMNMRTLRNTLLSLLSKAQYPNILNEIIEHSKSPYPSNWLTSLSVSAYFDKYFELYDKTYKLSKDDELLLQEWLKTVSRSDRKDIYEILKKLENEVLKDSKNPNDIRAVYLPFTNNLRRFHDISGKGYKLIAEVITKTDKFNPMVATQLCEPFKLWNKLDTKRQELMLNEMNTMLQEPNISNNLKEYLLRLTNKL

Vero = assay: cells; type: functional; details: Chlorocebus sabaeus
Paired box protein Pax-8 = Paired box protein Pax-8 (Homo sapiens, UniProt Q06710); assay: inhibitors of PAX8-driven TPO luciferase reporter, dose response, RMG-I cells, cherry-pick (AID 687027); type: functional, cell-based;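 also: luciferase reporter driven by Pax8 target thyroperoxidase promoter measured by SteadyGlo luminescence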
[1] = inhibitors of clade B AD8 Env fusion, dose response, cell-based, cherry-pick (AID 652062); type: functional;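 also: luciferase signal from cell-cell fusion driven by HIV-1 clade B AD8 Env; potency is for inhibitors of fusion seen as a drop in luminescence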
[2] = inhibitors of HIV Env-driven cell fusion, dose response, cherry-pick (AID 652057); type: functional, cell-based
[3] = ZM109 Env clade C HIV-1 fusion inhibitors, dose response, HeLa effector, CEM target cells, luciferase, cherry-pick (AID 652058); type: functional, cell-based
[4] = off-target signal loss in HeLa-CEM21 co-culture – HeLa F-luc CTL cells, cherry-picked, counter-screen for HIV-1 Env fusion inhibitor project, dose response (AID 652040); type: functional, cell-based;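 also: potency for signal decrease marking cytotoxic or nonspecific inhibition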
HEK293 = assay: inhibitors of LMP1-driven NF-kB reporter, dose response, cell-based, HEK293, luciferase, cherry-pick (AID 588343); type: functional; details: Homo sapiens
[5] = biological target: T2, Polyadenylate-binding protein 1 (Homo sapiens, UniProt P11940); assay: PABP1 MLLE–PAM2 binding inhibitor potency, dose response, biochemical, fluorescence polarization, FITC-PAM2 peptide (AID 602259); type: functional; details: read-out: IC50_Mean
[6] = biological target: T2, Polyadenylate-binding protein 1; assay: PABP1 MLLE–PAM2 interaction inhibitors, dose response, miRNA deadenylation inhibitor project, biochemical, fluorescence polarization, Cy5-PAM2 peptide, secondary (AID 602260); type: functional; details: read-out: IC50_Mean

T2 sequence (P11940 whole entry): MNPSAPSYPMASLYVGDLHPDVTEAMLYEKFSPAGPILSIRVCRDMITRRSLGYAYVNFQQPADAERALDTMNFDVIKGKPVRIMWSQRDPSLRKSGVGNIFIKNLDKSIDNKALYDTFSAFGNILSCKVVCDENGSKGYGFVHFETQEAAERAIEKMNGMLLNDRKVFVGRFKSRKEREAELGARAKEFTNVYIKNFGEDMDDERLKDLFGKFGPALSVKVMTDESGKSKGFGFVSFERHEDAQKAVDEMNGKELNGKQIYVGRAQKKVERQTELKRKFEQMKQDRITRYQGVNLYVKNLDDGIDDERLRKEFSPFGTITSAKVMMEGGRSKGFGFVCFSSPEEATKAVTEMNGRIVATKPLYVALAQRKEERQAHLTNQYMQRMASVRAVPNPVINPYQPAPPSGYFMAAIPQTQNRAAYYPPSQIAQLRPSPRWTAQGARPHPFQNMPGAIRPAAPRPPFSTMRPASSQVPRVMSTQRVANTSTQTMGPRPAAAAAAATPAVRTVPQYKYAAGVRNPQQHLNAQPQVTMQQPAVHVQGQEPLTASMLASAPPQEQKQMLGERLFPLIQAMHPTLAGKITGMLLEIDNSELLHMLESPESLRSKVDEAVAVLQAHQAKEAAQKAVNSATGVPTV
Chain of Paired box protein Pax-8 (Q06710 whole entry, the tested form may be a part): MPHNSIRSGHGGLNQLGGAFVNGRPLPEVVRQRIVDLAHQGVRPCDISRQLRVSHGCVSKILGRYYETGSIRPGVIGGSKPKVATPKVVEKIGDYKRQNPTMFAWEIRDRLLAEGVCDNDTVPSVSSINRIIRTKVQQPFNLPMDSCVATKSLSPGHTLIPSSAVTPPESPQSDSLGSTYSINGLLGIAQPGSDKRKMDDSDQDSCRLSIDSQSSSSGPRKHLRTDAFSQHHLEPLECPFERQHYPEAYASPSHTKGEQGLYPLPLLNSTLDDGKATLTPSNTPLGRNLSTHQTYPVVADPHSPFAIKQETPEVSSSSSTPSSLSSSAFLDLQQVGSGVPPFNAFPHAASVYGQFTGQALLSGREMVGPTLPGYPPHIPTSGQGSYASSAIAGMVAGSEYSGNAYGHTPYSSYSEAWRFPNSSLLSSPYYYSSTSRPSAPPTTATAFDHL

| Compound | AC50 [1] | AC50 [2] | AC50 [3] | AC50 [4] | further results |
| --- | --- | --- | --- | --- | --- |
| Cc1ccc2nc3c(nc2c1C)C(O)=C3O |  |  |  |  | IC50 (Aminopeptidase N): 48.5 µM (active) |
| COc1cccc(/C=C2\SC(=S)N(CCC(=O)NCCc3ccc(O)cc3)C2=O)c1 |  |  |  |  | CC50 (Vero): 16.1 µM (active); AC50 (Paired box protein Pax-8): 4.57 µM (active) |
| CCn1c(COc2ccc(Cl)cc2)nnc1SCc1nc2ccccc2[nH]1 | 5.17 µM (active) | 6.83 µM (active) | 12 µM (active) | 23.5 µM (active) |  |
| NNC(=O)c1cccc(COc2ccc3c(c2)CCC3)c1 |  |  |  |  | AC50 (HEK293): 2.12 µM (active) |
| CCc1nc2ccc(C(=O)N3CCN(C(=O)c4ccco4)CC3)cn2c1N(C)Cc1ccc(OC)cc1 | 13.5 µM (active) | 2.72 µM (active) | 7.5 µM (active) | 10.4 µM (active) |  |
| O=C(c1ccc2c(c1)OCO2)N(CC1CCCO1)C1(C(=O)NC2CCCCC2)CCCCC1 (stereo not given) | 13 µM (active) | 5.73 µM (active) | 4.79 µM (active) | 9.67 µM (active) |  |
| COc1cc(/C=C/C(=O)O)cc(S(=O)(=O)Nc2ccc3nc(SC)sc3c2)c1OC |  |  |  |  | IC50 (Aminopeptidase N): 66.4 µM (active) |
| O=C(Nc1cc(Cl)cc(Cl)c1)C1CCC(=O)N1Cc1ccccc1Cl (stereo not given) | 8.36 µM (active) | 7.12 µM (active) | 19.3 µM (active) | 59.2 µM (active) |  |
| Cc1csc(N=Nc2ccc(N(C)C)cc2)[n+]1[O-] |  |  |  |  | AC50 (HEK293): 2.84 µM (active) |
| COc1ccc(NS(=O)(=O)c2ccc(N3CCCC3)c(NC(S)=Nc3ccc(SC(F)F)cc3)c2)cc1 |  |  |  |  | AC50 (Paired box protein Pax-8): 16.4 µM (active); IC50 [5]: > 66 µM (inactive); IC50 [6]: > 66 µM (inactive) |
